Experimental data taken from BindingDB's records for doi:10.1002/cbic.201600697 (University of Tartu, 2017).
pKd: −log10 of the molar value. Where “and” joins values, the source holds several entries; their conditions need not be identical. Equal entries are not always repeated.

Key:
Settings in all cases: pH 7.5
[1] = molecular target: T1, Serine/threonine-protein kinase haspin [470-798] (Homo sapiens, UniProt Q8TF76); test: Equilibrium Binding/Displacement Assay with Fluorescence Anisotropy
T1 construct: 470-798
T1 sequence (Q8TF76 whole entry): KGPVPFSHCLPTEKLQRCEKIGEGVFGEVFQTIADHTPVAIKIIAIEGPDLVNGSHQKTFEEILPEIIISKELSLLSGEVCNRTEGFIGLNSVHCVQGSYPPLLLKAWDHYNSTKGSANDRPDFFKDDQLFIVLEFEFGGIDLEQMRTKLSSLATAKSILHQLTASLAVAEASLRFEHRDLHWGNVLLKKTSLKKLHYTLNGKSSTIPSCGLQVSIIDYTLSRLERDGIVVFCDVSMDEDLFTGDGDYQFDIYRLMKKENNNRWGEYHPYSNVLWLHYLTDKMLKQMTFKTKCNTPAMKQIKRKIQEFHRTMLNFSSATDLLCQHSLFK
Description: (§1) All measurements were performed in HEPES (50 mm, pH 7.5) containing NaCl (150 mm), Tween-20 (0.005%) and DTT (5 mm) according to a previously published protocol.[Vaasa et al., Anal. Biochem., 385:85-93] The final volume of the assay mixture was […].

[2] = molecular target: cAMP-dependent protein kinase catalytic subunit alpha (Homo sapiens, UniProt P17612); test: as above
Description: as §1

[3] = molecular target: T1, Serine/threonine-protein kinase haspin [470-798]; test: Kinetic Assay with Fluorescence Anisotropy
Description: Association kinetics (Kon): All measurements were performed in HEPES (50 mM, pH 7.5) containing NaCl (150 mM), Tween-20 (0.005%) and DTT (5 mM) according to a previously published protocol.[Vaasa et al., Anal. Biochem., 385:85-93] The final volume of the assay mixture was […] The association kinetics assay with fluorescent probes and data analysis were performed according to published protocols.[Vaasa et al., Anal. Biochem., 385:85-93] The final volume of the assay mixture was […]. Dissociation kinetics (Koff): All measurements were performed in HEPES (50 mM, pH 7.5) containing NaCl (150 mM), Tween-20 0.005%) and DTT (5 mM). Data analysis was as reported previously,[Vaasa et al., Anal. Biochem., 385:85-93] by using method1 for compounds with shorter residence times, and method 2 for 1 in studies with haspin. The final volume of the assay mixture was […]. Kd' is calculated as Koff/Kon.

Compound | pKd [1] | pKd [2] | pKd [3]
CCCCCCCCCCCCCC(=O)NCCCC[C@@H](NC(=O)[C@H](C)NC(=O)[C@@H](NC(=O)[C@H](CCC(N)=O)NC(=O)[C@H](CCCNC(=N)N)NC(=O)[C@H](CCCCNC(=O)C[C@@H](NC(=O)CCCCCNC(=O)[C@H]1O[C@@H](n2ccc3c(N)ncnc32)[C@H](O)[C@@H]1O)C(=O)[O-])NC(=O)[C@H](CCCNC(=N)N)NC(=O)[C@H](C)N)C(C)O)C(=O)N[C@H](CCCCNC(=O)c1ccc(-c2c3ccc(=[N+](C)C)cc-3oc3cc(N(C)C)ccc23)c(C(=O)O)c1)C(N)=O (stereo partly specified) [ARC-3380] | 8.08 | 8.02 | 7.83
CC(O)[C@H](NC(=O)[C@H](CCC(N)=O)NC(=O)[C@H](CCCNC(=N)N)NC(=O)[C@H](CCCCNC(=O)C[C@@H](NC(=O)CCCCCNC(=O)[C@H]1O[C@@H](n2ccc3c(N)ncnc32)[C@H](O)[C@@H]1O)C(=O)[O-])NC(=O)[C@H](CCCNC(=N)N)NC(=O)[C@H](C)N)C(=O)N[C@@H](C)C(=O)N[C@H](CCCCNC(=O)c1ccc(-c2c3ccc(=[N+](C)C)cc-3oc3cc(N(C)C)ccc23)c(C(=O)O)c1)C(N)=O (stereo partly specified) [ARC-3384] | 7.96 | 7.28 | 8.55
CC(O)[C@H](NC(=O)[C@H](CCC(N)=O)NC(=O)[C@H](CCCNC(=N)N)NC(=O)[C@H](CCCCNC(=O)C[C@@H](NC(=O)CCCCCNC(=O)[C@H]1O[C@@H](n2cc(I)c3c(N)ncnc32)[C@H](O)[C@@H]1O)C(=O)O)NC(=O)[C@H](CCCNC(=N)N)NC(=O)[C@H](C)N)C(=O)N[C@@H](C)C(=O)N[C@H](CCCCN)C(N)=O (stereo partly specified) [ARC-3429] | 9.85 and 10.72 | 7.03 | –
CC(O)[C@H](NC(=O)[C@H](CCC(N)=O)NC(=O)[C@H](CCCNC(=N)N)NC(=O)[C@H](CCCCNC(=O)C[C@@H](NC(=O)CCCCCNC(=O)[C@H]1O[C@@H](n2cc(I)c3c(N)ncnc32)[C@H](O)[C@@H]1O)C(=O)[O-])NC(=O)[C@H](CCCNC(=N)N)NC(=O)[C@H](C)N)C(=O)N[C@@H](C)C(=O)N[C@H](CCCCNC(=O)c1ccc(-c2c3ccc(=[N+](C)C)cc-3oc3cc(N(C)C)ccc23)c(C(=O)O)c1)C(N)=O (stereo partly specified) [ARC-3430] | 9.30 and 9.92 | 8.39 | 10.00
